One assay has as its system 6xHis-MBP-BIM. Nature of the assay: AlphaScreen binding of H3 peptide to MBP-fused BIM. To be noted: n = 3, Fig. S9D. Further details: species or system Saccharomyces cerevisiae. The method, then:
(§1) We performed AlphaScreen assays using a 6xHis detection kit (PerkinElmer). The biotinylated unmodified and the all-four-lysine acetylated H3 peptide (1–22 amino acids) were synthesized by GenScript. We individually mixed the purified 50 nM 10xHis-3xFlag-Yta7, 10xHis-3xFlag-Yta7ΔBRD, 10xHis-3xFlag-Yta7ΔBIMΔBRD, 6xHis-MBP-BIM, 6xHis-MBP-BRD, and the complex of 6xHis-MBP-BRD and MBP-BIM with 50 nM biotinylated and unmodified or acetylated H3 (1–22 amino acid) peptides, respectively, and incubated the mixtures on ice for 1.5 h with the streptavidin-coated donor beads (5 μg/ml) and nickel-chelated acceptor beads (5 μg/ml) in 50 mM Mops (pH 7.4), 100 mM NaCl, and bovine serum albumin (0.1 mg/ml). For nucleosome-binding assay, we used 50 nM 10xHis-3xFlag-Yta7 and 100 nM biotinylated human nucleosome. We incubated the mixture for 2 h on ice with the same concentration donor and acceptor beads. The donor beads contain a photosensitizer that converts ambient oxygen into short-lived singlet oxygen upon 680 nm light activation. When the acceptor beads are brought close enough to the donor beads by interaction between His-tagged proteins and biotinylated peptides, singlet oxygen can diffuse from the donor to the acceptor beads to transfer the energy to the thioxene derivatives of the acceptor beads, resulting in light emission at 520 to 620 nm range.
For orientation: In Alpha technology, singlet oxygen from a donor bead excites a nearby acceptor bead.

Assay [1] deals with complex of 6xHis-MBP-BRD and MBP-BIM. The experiment in a line: AlphaScreen binding of H3 peptide to BRD and BIM together. Further details: species or system Saccharomyces cerevisiae. The method, then: as §1
Another assay deals with Yta7_ΔBRD. Nature of the assay: AlphaScreen binding of H3 peptide to Yta7 lacking BRD. Further details: species or system Saccharomyces cerevisiae. To be noted: 50 nM construct (954–1132 deleted), 50 nM biotinylated H3 (1–22), pH 7.4, on ice 1.5 h, n = 3, Fig. S9B. The method, then: as §1
In a further assay the test system is Yta7_ΔBIM ΔBRD. Nature of the assay: AlphaScreen binding of H3 peptide to Yta7 lacking BIM and BRD. Further details: species or system Saccharomyces cerevisiae. The settings on record: 50 nM construct (320–350 and 954–1132 deleted), 50 nM biotinylated H3 (1–22), pH 7.4, on ice 1.5 h, n = 3, Fig. S9B. The method, then: as §1
The subject of another assay is Yta7. The experiment in a line: AlphaScreen binding of biotinylated H3 N-tail peptide (unmodified or acetylated) to full-length Yta7. Further details: species or system Saccharomyces cerevisiae. The settings on record: for binding to Yta7: 50 nM 10xHis-3xFlag-Yta7, 50 nM biotinylated H3 (1–22 amino acid) peptide, 50 mM Mops pH 7.4, 100 mM NaCl, BSA 0.1 mg/ml, on ice 1.5 h. The method, then: as §1

Assay [2] in a line: Malachite Green ATPase assay of Yta7. The format is biochemical. To be noted: Malachite Green phosphate assay, 2 mM ATP, 25 mM Hepes pH 7.6, 2 mM MgCl2, 150 mM KCl, 1 mM DTT, room temperature 1 h, A620; three independent experiments; Fig. S1C. The method, then: The Malachite Green Phosphate assay kit (Sigma–Aldrich) was used to measure the ATP hydrolysis rate of Yta7 present in different nucleotides. Yta7 was incubated in assay buffer (25 mM Hepes [pH 7.6], 2 mM MgCl2, 150 mM KCl, and 1 mM DTT) with or without histone-3 peptide (1–24 amino acids). Either 2 mM ATP or 2 mM ATPγS or 2 mM ADP (negative control) was added to initiate the reaction at room temperature for 1 h. Absorbance at 620 nm was measured in a Molecular Devices SpectraMax M2e microplate reader.

[3] abbreviates: AlphaScreen, three independent experiments in triplicate.

This note sets out measurements from publication PMC9898759, “The Saccharomyces cerevisiae Yta7 ATPase hexamer contains a unique bromodomain tier that functions in nucleosome disassembly” (The Journal of Biological Chemistry, 2022).

In the case of “unmodified H3 peptide (1–22 amino acids)”, in the assay on 6xHis-MBP-BIM (50 nM 6xHis-MBP-BIM, 50 nM biotinylated H3 (1–22), pH 7.4, on ice 1.5 h), the “binding signal to BIM alone” value is reported as “weak binding signal”. Besides, the “binding signal to BIM alone relative to MBP control and BRD alone” value in the assay with 6xHis-MBP-BIM (6xHis-MBP negative control, compared with 6xHis-MBP-BRD) is given as “above the MBP control but weaker than BRD alone”. Besides, the “binding signal to BRD–BIM relative to Yta7 hexamer” value in assay [1] (BRD–BIM complex vs full-length Yta7 hexamer) is “an order of magnitude weaker”. Also, the “binding signal to BIM and BRD together relative to BRD alone” value in assay [1] (complex of 6xHis-MBP-BRD and MBP-BIM vs 6xHis-MBP-BRD, 50 nM biotinylated H3 (1–22), pH 7.4, n = 3, Fig. S9D) is listed as “stronger than BRD alone”. The “binding to Yta7_ΔBRD” value with Yta7_ΔBRD is listed as “neither Yta7_ΔBRD nor Yta7_ΔBIM ΔBRD bind”. The “binding to Yta7_ΔBIM ΔBRD” value with Yta7_ΔBIM ΔBRD is given as “neither Yta7_ΔBRD nor Yta7_ΔBIM ΔBRD bind”. In the assay with Yta7 (setting [3]), the “binding to Yta7” value was “bound Yta7”. The “binding signal relative to the acetylated version” value in the assay with Yta7 (AlphaScreen, 50 nM Yta7, 50 nM biotinylated H3 (1–22) peptides, pH 7.4, on ice 1.5 h, means of three independent experiments performed in triplicate, Fig. 2H) was “five times stronger”. Further, in the assay on Yta7 (AlphaScreen, biotinylated H3 (1-22 aa), in the presence of ADP or ATPγS, three independent experiments in triplicate, Fig. S1E), the “affinity / binding in the presence of ADP or ATPγS” value is recorded as “unaffected”. Also, in the assay with Yta7 (AlphaScreen, unmodified compared with acetylated H3 (1–22) peptide, qualitative, listed as unmodified peptide), the “relative affinity, unmodified vs acetylated H3 peptide” value is listed as “higher affinity”.
With “acetylated H3 peptide (1–22 amino acids): biotinylated all-four-lysine acetylated H3 peptide (1–22 amino acids), synthesized by GenScript”, the “binding to Yta7” value with Yta7 (setting [3]) is reported as “bound Yta7”.
In the case of “24-residue H3 N-tail: unmodified H3 peptides (1–24 amino acids) (GenScript)”, the “interaction with Yta7 (24-residue H3 N-tail)” value with Yta7 (24-residue H3 N-tail, Fig. S1, C and D) is recorded as “interacted with”.
Consider “Yta7: full-length S. cerevisiae Yta7 AAA+ ATPase hexamer, 10xHis and 3xFLAG tagged”, for which the ATP hydrolysis entry in assay [2] is recorded as “hydrolyzed ATP”.
